Patent US7629371B2, “Cosmetic use of a composition containing at least one oxazoline, serving as an active substance, as a slimming product and/or for preventing and/or treating cellulite” (Laboratoires Expanscience, priority 2003, dated 2009)

Tests used:
normal human adipocytes [1] = test: Evaluation of lipid synthesis in adipocytes in suspension (Example 6): incorporation of radiolabelled acetate into lipids; type: cell-based; conditions: for decrease of the incorporation of acetate, % of the control: FIG. 1
Protocol: A solution of OX100, diluted to a concentration of 10^−2 M in DMSO, was tested.
Normal human adipocytes were isolated from abdominal biopsies (plastic surgery). Immediately after they have been received, the samples are incubated for 30 minutes at 37° C. in the presence of collagenase (supplied by the company Sigma). The adipocyte suspension is subsequently rinsed and diluted three times in the culture medium. The culture medium consists of: • 1.87 mg/ml bicarbonate (supplied by the company Life Technologies), • 25 IU/ml/25 μg/ml of penicillin/streptomycin (supplied by the company Life Technologies), • 2 mM of glutamine (supplied by the company Life Technologies), • 100% v/v of MEM (supplied by the company Merck Eurolab), and • 0.5% w/v of albumin of bovine origin (supplied by the company Sigma). Evaluation of Lipid Synthesis
The adipocytes in suspension are incubated for 1 hour at 37° C. in the presence of various concentrations of OX100. The OX100 concentrations tested are 20 μM, 4 μM and 0.8 μM.
A volume of 10 ml of radiolabelled acetate (2-C^14, 60.87 μCi/ml, supplied by the company Amersham) is subsequently added to the preparation.
After incubation for 4 hours, the lipids are extracted according to the procedure described by Bligh and Dyer, Can J Biochem Physiol, 37, 922, (1959), (methanol/chloroform/water), and evaporated under nitrogen, and the radioactivity incorporated is quantified by liquid scintillation (liquid scintillation device reference LKB 1210, supplied by the company Rackbeta).
The possible interaction between the radiolabelled acetate and the OX100 was evaluated in order to confirm the specificity of labeling, by incubating the highest concentration of OX100 (20 μM) with acetate alone.

normal human adipocytes [2] = test: Evaluation of lipid synthesis in adipocytes in suspension (Example 7): incorporation of radiolabelled acetate into lipids; type: cell-based; conditions: for decrease of the incorporation of acetate into lipids, % of the control: FIG. 2
Protocol: A solution of OX100 (10^−2 M in DMSO) was tested.
Culture Conditions: They are identical to those of example 6.
The adipocytes in suspension are incubated for 1 h at 37° C. in the presence of various concentrations of OX100 (10, 20 and 100 μMO). A volume of 10 ml of radiolabelled acetate (2-C^14, 60.87 μCi/ml, Amersham) is subsequently added to the preparation. After incubation for 4 h, the lipids are extracted according to the procedure described by Bligh and Dyer (methanol/chloroform/water), and evaporated under nitrogen, and the radioactivity incorporated is quantified by liquid scintillation (Rackbeta LKB 1210).

[3] = tested at 10 μM, 1 h preincubation, 4 h with 2-C14 acetate

| SMILES | inhibition of the incorporation of acetate (inhibition/control) (normal human adipocytes [1]; [3]) [%] | inhibition of the incorporation of acetate (inhibition/control) (normal human adipocytes [2]; [3]) [%] | inhibition of lipogenesis in human adipocytes (in words) (normal human adipocytes [1]) | decrease of the incorporation of acetate, % of the control (normal human adipocytes [1]; OX100 at 4 μM, 4 h with 2-C14 acetate) [%] | decrease of the incorporation of acetate, % of the control (normal human adipocytes [1]; OX100 at 20 μM, 4 h with 2-C14 acetate) [%] | decrease of the incorporation of acetate into lipids, % of the control (normal human adipocytes [2]; OX100 at 10 μM) [%] | decrease of the incorporation of acetate into lipids, % of the control (normal human adipocytes [2]; OX100 at 20 μM) [%] | decrease of the incorporation of acetate into lipids, % of the control (normal human adipocytes [2]; OX100 at 100 μM) [%] | inhibitory activity on lipid synthesis (in words) (normal human adipocytes [2]; human adipocytes in culture) |
| --- | --- | --- | --- | --- | --- | --- | --- | --- | --- |
| C/C=C/C/C=C/CCC(=O)[C@H]1O[C@H]1C(N)=O [ceruline, reference compound] | 95 | 75 |  |  |  |  |  |  |  |
| CCCCCCCCCCCC1=NC(C)(C)CO1 [OX100, 2-undecyl-4,4-dimethyl-1,3-oxazoline] |  |  | capable of inhibiting lipogenesis | 25 | 31 | 35 | 38 | 39 | significant inhibitory activity |
